Results: patent US10239836B2, “Benzenecarbothioccyclopenta[c] pyrrole-1,3-dione compounds and process for synthesis thereof” (Council of Scientific & Industrial Research, priority 2014, dated 2019)
Where two headings read alike, the source gives them in different places.

What was measured:
[1] = test system: LPS induced NO generation in RAW 264.7 cells; experiment: Inhibition of LPS induced NO generation (nitrite, Griess reagent); assay type: cell-based, Mouse; conditions: for IC50: Mus musculus, read-out: NO inhibition (B) IC50; for Selectivity index (A/B): cytotoxicity IC50 / NO inhibition IC50, RAW 264.7 cells
Procedure: (§1) Mouse macrophage cell line RAW 264.7 was maintained in laboratory at 37° C. in
(§2) RPMI-1640 media supplemented with 10% heat-inactivated fetal bovine serum (FBS) and penicillin/streptomycin.
Nitrite, a stable oxidized product of NO, was measured in culture supernatant using Griess reagent (Sigma Aldrich) according to a previously reported method (2). After overnight seeding in 96-well plate (2×10^4 cells/well), RAW 264.7 cell was treated with lipopolysaccharide (LPS; Sigma) at a concentration of 1 μg/ml along with different doses of compounds (as determined from cytotoxicity assay) in serum-free culture for 24 h. Following treatment, media was collected and centrifuged at 2,000 rpm for 5 min to remove cellular debris. 50 μl of this media was then reacted with equal volume of Griess reagent for 15 min at room temperature in dark and absorbance was taken at 540 nm using Microplate reader (Biorad, USA). Nitrite concentrations were determined using standard solutions of sodium nitrite prepared in cell culture medium.

[2] = Cytotoxicity assay (MTT viability); assay type: cell-based, Mouse; conditions: mouse; RAW 264.7 cells, MTT, 24 h treatment, serum free
Procedure: as §1, §2
Viability of cultured cells was determined by (4,5-dimethylthiazol-2-yl)-2,5-diphenyltetrazolium bromide (MTT; Sigma) as described earlier (1). RAW 264.7 was seeded in triplicate at a density of 2×10^4 cells per well on a 96-well plate. […] MTT solution (0.5 mg/ml) was then added to each well and incubate for 4 h at 37° C. At the end of the incubation period, the medium was removed and the resulting purple formazan was solubilized with acidic isopropanol (0.1 N HCl in absolute isopropanol), and the absorbance was read at 570 nm using Biorad Microplate reader (Biorad, USA).

[3] = RAW264.7, RAW 264.7 cells, LPS 1 μg/ml, 24 h, serum-free

SMILES	IC50 [1, 3]	Selectivity index (A/B) [1]	IC50 at 24 h [2]	IC50 ([1]; RAW264.7, 24 h)
O=C(Cc1ccccc1)S[C@@]12CC[C@@H](O)[C@@H]1C(=O)NC2=O (relative stereo) [Compound 10, S-((3aS*,6R*,6aR*)-6-Hydroxy-1,3-dioxohexahydrocyclopenta[c]pyrrol-3a(1H)-yl) 2-phenylethanethioate]	143 µM	5.418	774 µM	
CC(=O)SC1CC[C@]2(SC(C)=O)C(=O)NC(=O)[C@H]12 (relative stereo) [Compound 28, S,S′-((3aR*,6aR*)-1,3-Dioxohexahydrocyclopenta[c]pyrrole-3a,6(1H)-diyl) diethanethioate]		505.4343	10000 µM	19.8 µM
CC(=O)OC1CC[C@]2(SC(=O)Cc3ccccc3)C(=O)NC(=O)[C@H]12 (relative stereo) [Compound 32, (3aS*,6aR*)-1,3-Dioxo-6a-((2-phenylacetyl)thio) octahydrocyclopenta[c]pyrrol-4-yl acetate]		23.57	1610 µM	68.2 µM
O=C(S)c1ccc(O)cc1 [Compound 6, 4-hydroxybenzothioic S-acid]	127 µM	22.99	2910 µM	
O=C(Cc1ccccc1)S[C@]12CCC[C@H]1C(=O)NC2=O (relative stereo) [Compound 19, S-((3aR*,6aS*)-1,3-Dioxohexahydrocyclopenta[c]pyrrol-3a(1H)-yl) 2-phenylethanethioate]	56.9 µM	7.48	426 µM	
O=C(S[C@@]12CC[C@@H](O)[C@@H]1C(=O)NC2=O)c1ccc(O)cc1 (racemic) [(±)-2, S-((3aS*,6R*,6aR*)-6-hydroxy-1,3-dioxohexahydrocyclopenta[c]pyrrol-3a(1H)-yl) 4-hydroxybenzothioate]	225 µM	1.925	434 µM	
CC(=O)OC1CC[C@]2(SC(=O)c3ccccc3)C(=O)NC(=O)[C@H]12 (relative stereo) [Compound 35, (3aS*,6aR*)-6a-(Benzoylthio)-1,3-dioxooctahydrocyclopenta[c]pyrrol-4-yl acetate]	64.3 µM	29.74	1910 µM	
O=C(S[C@@]12CC[C@@H](O)[C@@H]1C(=O)NC2=O)c1cccs1 (relative stereo) [Compound 12, S-((3aS*,6R*,6aR*)-6-Hydroxy-1,3-dioxohexahydrocyclopenta[c]pyrrol-3a(1H)-yl) thiophene-2-carbothioate]	36.6 µM	297.0519	10900 µM	
CC(=O)OC1CCC2=C1C(=O)NC2=O (racemic) [Compound 5, 1,3-dioxo-1,2,3,4,5,6-hexahydrocyclopenta[c]pyrrol-4-yl acetate]	42 µM	14.67	616 µM	
O=C(Cc1ccccc1)S[C@]12CC[C@@H](O)[C@H]1C(=O)NC2=O (relative stereo) [Compound 9, S-((3aR*,6R*,6aS*)-6-Hydroxy-1,3-dioxohexahydrocyclopenta[c]pyrrol-3a(1H)-yl) 2-phenylethanethioate]	132 µM	6.322	834 µM	
CC(=O)S[C@]12CC[C@@H](O)[C@H]1C(=O)NC2=O (relative stereo) [Compound 7, S-((3aR*,6R*,6aS*)-6-Hydroxy-1,3-dioxohexahydrocyclopenta[c]pyrrol-3a(1H)-yl) ethanethioate]	148 µM	3.7762	558 µM	
CC(=O)OC1CC[C@]2(SC(=O)c3ccc(F)cc3)C(=O)NC(=O)[C@H]12 (relative stereo) [Compound 33, (3aS*,6aR*)-6a-((4-Fluorobenzoyl)thio)-1,3-dioxooctahydrocyclopenta[c]pyrrol-4-yl acetate]	34.3 µM	353.8076	12100 µM	
